Measured values taken from patent publication US20130143244A1, “SOX9 AS A MARKER FOR AGGRESSIVE CANCER” (ADMINISTRATORS OF THE TULANE EDUCATIONAL FUND, priority 2010, published 2013).
Entries after “also recorded” stand apart in the source; their conditions may differ.

B1: wnt3a: recombinant wnt3a protein (R&D Systems) used to activate wnt signaling (protein, UniProt P56704 19-352, looked up)
Protein Wnt-3a: SYPIWWSLAVGPQYSSLGSQPILCASIPGLVPKQLRFCRNYVEIMPSVAEGIKIGIQECQHQFRGRRWNCTTVHDSLAIFGPVLDKATRESAFVHAIASAGVAFAVTRSCAEGTAAICGCSSRHQGSPGKGWKWGGCSEDIEFGGMVSREFADARENRPDARSAMNRHNNEAGRQAIASHMHLKCKCHGLSGSCEVKTCWWSQPDFRAIGDFLKDKYDSASEMVVEKHRESRGWVETLRPRYTYFKVPTERDLVYYEASPNFCEPNPETGSFGTRDRTCNVSSHGIDGCDLLCCGRGHNARAERRREKCRCVFHWCCYVSCQECTRVYDVHTCK

Assays:
Format in all cases: cell-based, human
[1] = test system: p21, SOX9 and acetylated SOX9 in MDA-MB-231 cells; test: Immunoblot and immunoprecipitation analysis of p21, SOX9 and acetylated SOX9; details: for p21 expression, arbitrary units normalized to actin level, change compared to cells grown in 10% FBS medium: TSA 500 nM or LMB 5 ng/ml for 4 h
Procedure: Asynchronous cell populations at a density of 50-60% in 6-well plates were serum deprived for 24 h, treated with TSA (500 nM), or Leptomycin B (5 ng/ml) for the next 4 h and then cultured in the presence of 10% FBS for 2-3 h before harvesting. Immunoblotting was performed by solubilizing cells in RIPA buffer, electrophoresing on 10% SDS-PAGE gels, incubating with primary antibodies for 1-2 h at room temperature, and detecting primary antibodies using HRP-conjugated secondary antibodies (1:30,000 dilution, Santa Cruz Biotechnology Inc.) and Amersham® ECU® (GE Healthcare Bio-Sciences Corp., Piscataway, N.J.) as described in Wang et al., Clin Cancer Res., 12:4755-65 (2006). Western blots were quantified by calculating an integrated density value (IDV) for each band using Bio-Rad's Gel Doc™ system and normalizing to the IDV of actin. For immunoprecipitation, total protein lysates were centrifuged at 14,000×g for 15 minutes at 4° C. Supernatants were then transferred to fresh centrifuge tubes and precleared with 50 μl of protein A Sepharose™ bead slurry (50%) per 1 ml of cell lysate. Incubation was continued at 4° C. for 30 minutes on a rocker or orbital shaker. Protein A beads were then collected by centrifugation at 14,000×g at 4° C. for 5 minutes. Protein concentration of the saved supernatant was determined after removing the beads. Approximately 500 μg to 1 mg of protein from each sample was transferred to fresh centrifuge tubes and diluted to 1 ml with ice cold PBS to reduce the concentration of the detergents in the buffer. The diluted lysates were incubated with 2 μg/mg protein anti-SOX9 antibody and rotated overnight at 4° C. Immuno complexes were captured with slurry of protein A-Sepharose™ CL-4B (Sigma) pre-washed with BSA through rotations for 1 h at 4° C. and washed three times with ice-cold modified RIPA buffer (Tris-HCl: 50 mM, pH 7.4, NP-40:1%, Na-deoxycholate: 0.25%, NaCl: 150 mM, EDTA: 1 mM, PMSF: 1 mM, NaF: 1 mM). Washed Sepharose™ beads were resuspended in 60 μl RIPA buffer with SDS dye and resolved on 10% SDS-PAGE gels. Blotted proteins were immunoprobed with antilysine antibody to detect the levels of acetylated SOX9.

MDA-MB-231 cells [2] = test: MTT cytotoxicity assay; details: for growth of MDA-MB-231 cells relative to control (cell viability by MTT): serum starved, increasing drug concentrations (TSA 50-500 nM, LMB 0.5-10 ng/ml), 48 h; for cell death: serum starved MDA-MB-231 cells, increasing drug concentrations
Procedure: MTT cytotoxicity assay: MDA-MB-231 or MCF7 cells were plated onto 96 well plates at a density of 2.5×10^3 cells/well. Cells were allowed to attach overnight and serum starved for the next 24 h. Following starvation, cells were treated with increasing concentration of Trichostatin A (50-500 nM) or Leptomycin B (0.5-10 ng/ml) and allowed to grow for next 24 h. At the end of 24 h drug treatment, media was supplemented with an equal volume of media with 20% FBS. An MTT assay was used to determine cell viability after exposure to test compounds for 48 h, including the 24 h of incubation with 10% FBS. Briefly, 10 μl of MTT reagent (5 mg/ml in PBS) was added to each well, the plate was incubated for 2-4 h to allow for the formation of formazan crystals, the media was aspirated from all wells and crystals were dissolved with 150 μl DMSO. The optical densities were measured at 540 nm on a BioTek uQuant microplate spectrophotometer (BioTek Instruments, Inc., Winooski, Vt.) and the percent of surviving cells was calculated with respect to control or untreated cells. For the modified MTT assay, the classical MTT reagent was replaced with WST-8, which produces a water soluble formazan dye upon bioreduction. For this assay, at the end of drug treatment, cells were incubated with 10 μl of WST-8 per 100 μl media/per well for 2-3 h. O.D. at 450 nm was measured to determine cell viability in each well.

[3] = test system: SOX9 localization in MDA-MB-231 cells; test: Immunofluorescence microscopy of SOX9 localization; details: serum-deprived MDA-MB-231 cells, TSA 500 nM or LMB 5 ng/mL for 4 h, then 10% FBS
Procedure: Cells were grown on sterile glass coverslips in 6 well plates to 30%-40% confluence in their respective media, serum starved for the next 24 h treated with 1 nM all trans retinoic acid, 500 nM TSA or 5 ng/mL Leptomycin B for 4 h and then with 10% FBS for 2-3 h. Coverslips were washed three times in PBS and fixed in 4% paraformaldehyde for 30 minutes. After washing the coverslips again with PBS three times, they were blocked with 10% whole goat serum (Santa Cruz Biotechnology, Inc., Santa Cruz, Calif.) for thirty minutes. Cells were stained with anti-SOX9 (1:1,000 dil) antibody or anti-DDK tag antibody (OriGene Technologies, Inc., Rockville, Md.) and visualized using alexa 488-conjugated or 594-conjugated secondary (1:500 dilution) antibody (Molecular Probes®, Invitrogen Corp., Carlsbad, Calif.) as described previously (Chakravarty et al., Exp Biol Med (Maywood), 234:372-86 (2009)). For analysis, cells were visualized with a Nikon N300 microscope (Nikon Instruments Inc., Melville, N.Y.). Filter sets for FITC and DAPI were used to capture images that were then analyzed with Elements software. To establish that response to growth arrest signals was dependent on SOX9's cellular localization, both cell lines were also cultured on coverslips, serum starved for 24 h, and subsequently exposed to 10% FBS and stained with SOX9 antibody as described above.

MDA-MB-231 cells [4] = test: Gene expression profiling using RT2 Profiler PCR Array; details: MDA-MB-231 cells serum starved, TSA for 4 h, then FBS
Procedure: MDA-MB-231 cells with or without TSA treatment were harvested for total RNA using Trizol (Invitrogen) and reverse transcribed using RT^2 first strand kit from SABiosciences (Frederick, Md.). Real-Time PCR was performed according to the RT^2 Profiler PCR Array User manual (SABiosciences) using SYBR Green PCR Master Mix for the CFX96™ Real-Time PCR detection system from Bio-Rad (Bio-Rad Laboratories, Inc., Hercules, Calif.). The PAHS-090C PCR Array was repeated twice for each cDNA sample and the data were analyzed using Excel-based PCR Array Data Analysis Templates from SABiosciences.
The average Ct value of each gene obtained from duplicate experiments was used to calculate its expression value, which was expressed as 2−ΔCt (ΔCt=CtGOI−Ave CtHKG; GOI=gene of interest, HKG=housekeeping gene, Ave CtHKG=average Ct value of five housekeeping genes).

[5] = test system: beta catenin reporter (TOP-flash/FOP-flash) in MDA-MB-231 cells; test: TOP-flash / FOP-flash beta catenin reporter transfection experiment
Procedure: The Col2a1 reporter gene (Lefebvre et al., Mol Cell Biol, 17:2336-46 (1997)) was kindly provided by Prof. Benoit deCrombrugghe's laboratory. The beta catenin reporter set containing the plasmids TOP-flash and FOP-flash were made available by Prof. Randall Moon's laboratory.
For transfection, MDA-MB-231 cells were cultivated at 2.5×10^5 cells per well in 6-well plates. Twenty four hours later, transfection was performed using lipofectamine 2000 (Invitrogen) according the manufacturer's instruction. Cells in 6-well plates were transfected with 0.250 μg DNA of Col2a1 reporter or […] DNA of Top-flash or Fop-flash reporters, 10 ng of Renilla luciferase and 1.0 μg of wild type DDK tagged SOX9 per well. Top-flash or Fop-flash reporter transfected wells were treated with 15-ng/ml recombinant wnt3a protein (R&D Systems, Inc., Minneapolis, Minn.) after 24 h of transfection. All transfected cells were lysed directly in Promega's Dual Luciferase lysis buffer and collected with a cell scrape. Luciferase measurement was performed using a Optocomp I luminometer (MGM Instruments, Inc., Hamden, Conn.). Cellular localization of wild type DDK tagged SOX9 was detected using immunofluorescence as described above.

Molecule	p21 expression, arbitrary units normalized to actin level, change compared to cells grown in 10% FBS medium ([1]; western blot)	growth of MDA-MB-231 cells relative to control (cell viability by MTT) (MDA-MB-231 cells [2])	cell death (MDA-MB-231 cells [2])	nuclear localization of SOX9 [3]	acetylation of endogenous SOX9 protein ([1]; TSA 500 nM for 4 h, immunoprecipitation and anti acetylated lysine blot)	endogenous SOX9 protein expression, arbitrary units normalized to actin level, increase ([1]; TSA 500 nM for 4 h, western blot)	gene expression profile with versus without TSA treatment (MDA-MB-231 cells [4])	induction of TOP-flash reporter, wnt3a treated versus untreated cells ([5]; MDA-MB-231 cells transfected with wild type (nuclear) SOX9, 15 ng/ml recombinant wnt3a)	FOP-FLASH reporter activity, wnt3a treated versus untreated cells ([5]; MDA-MB-231 cells, mutated LEF-1/TCF-binding sites control vector)
CCC(=C/[C@H](C)C/C=C/C(C)=C/[C@@H](C)C(=O)[C@@H](C)[C@H](O)[C@@H](C)C/C(C)=C/C(=O)O)/C=C/[C@@H]1OC(=O)C=C[C@@H]1C [LMB, leptomycin B]	0.08 fold	unaffected	unable to retain SOX9 in the nucleus or induce cell death; also recorded: unaffected	unable to retain SOX9 in the nucleus; also recorded: unaffected	–	–	–	–	–
CC(/C=C/C(=O)NO)=C\[C@@H](C)C(=O)c1ccc(N(C)C)cc1 [TSA, [R-(E,E)]-7-[4-(Dimethylamino)phenyl]-Nhydroxy-4,6-dimethyl-7-oxo-2,4-heptadienamide]	1.3 fold	decrease in proliferative potential; also recorded: markedly heightened sensitivity to growth inhibition	dose dependent increase in cell death	marked increase in nuclear SOX9 staining; also recorded: enhanced nuclear localization of SOX9	enhanced acetylation of endogenous SOX9 protein	1.2 fold	several fold higher expression of genes involved in growth, development and differentiation and downregulation of migration, motility and cytoskeletal genes	–	–
B1	–	–	–	–	–	–	–	22 fold	unchanged
